Reference: patent publication US6720346B2, “Thiazole benzamide derivatives and pharmaceutical compositions for inhibiting cell proliferation” (Agouron Pharmaceuticals, Inc., priority 2001, dated 2004)
pIC50, pKi: −log10 of the molar value.

Tests used:
CDK2/cyclin A = target: T1, CDK2/cyclin A (Homo sapiens, UniProt P24941); experiment: Inhibition of CDK2/cyclin A retinoblastoma kinase activity (Ki; % inhibition); assay type: biochemical; details: for pKi: apparent Ki, CDK2/cyclin A, Rb substrate
T1 construct: made in house; host or cells: CDK2: insect cells (baculovirus); cyclin A: E. coli
Procedure, shortened: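 Radiometric filter assay of CDK2/proteolyzed cyclin A (baculovirus-expressed human CDK2, 10 or 19 nM) phosphorylating an Rb fragment with 25 μM [³²P/³³P]ATP in pH 7.4 HEPES, 2% DMSO, at 30 °C for 60 or 75 min under initial-rate conditions. Library compounds screened at 30 nM for % inhibition; apparent Ki from concentration series fit to competitive or tight-binding inhibition equations.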

human CDK4/cyclin D3 = target: T2, human CDK4/cyclin D3 (Homo sapiens, UniProt P11802); experiment: Inhibition of CDK4/cyclin D retinoblastoma kinase activity (Ki; % inhibition); assay type: biochemical; details: for pKi: apparent Ki, CDK4/cyclin D3, Rb substrate
T2 construct: made in house; host or cells: insect cells co-infected with baculovirus vectors
Procedure, shortened: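 Insect-cell-expressed CDK4 with truncated cyclin D3 (1-264), 5 nM, phosphorylating His-tagged Rb fragment (386-928) with 25 μM [32/33P]ATP at pH 7.4, 30 °C, 20 min (60 min for tight binders). Filter capture, phosphorimager read; % inhibition at 30 nM compound, Ki from competitive or tight-binding fits.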

HCT-116 cell line = experiment: Inhibition of cell growth, MTT tetrazolium salt assay; assay type: cell-based; details: for pIC50: Homo sapiens, HCT-116, 120 h, MTT, three to five days
Procedure, shortened: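 Cells in McCoy's 5A medium were given 4 h before compound addition in 0.5% (v/v) DMSO, then incubated 3–5 days at 37 °C, 5% CO2. After 4 h with 0.2 mg/mL MTT, DMSO-solubilized formazan was read at 540 nm; 50% and 90% growth-inhibitory concentrations came from semi-log plots against vehicle controls.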

[1] = HCT-116 cells, 0.25 μM compound

T2 sequence (P11802 whole entry): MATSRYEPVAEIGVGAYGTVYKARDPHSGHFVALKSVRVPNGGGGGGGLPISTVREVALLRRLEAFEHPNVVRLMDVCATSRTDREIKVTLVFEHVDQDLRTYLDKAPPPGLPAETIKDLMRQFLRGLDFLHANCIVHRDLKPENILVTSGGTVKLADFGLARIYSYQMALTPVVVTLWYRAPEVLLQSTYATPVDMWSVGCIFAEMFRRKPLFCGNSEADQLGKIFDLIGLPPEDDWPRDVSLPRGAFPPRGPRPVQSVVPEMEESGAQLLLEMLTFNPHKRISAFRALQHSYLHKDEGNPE
T2 sequence (P30281 1-264 partner limits assumed): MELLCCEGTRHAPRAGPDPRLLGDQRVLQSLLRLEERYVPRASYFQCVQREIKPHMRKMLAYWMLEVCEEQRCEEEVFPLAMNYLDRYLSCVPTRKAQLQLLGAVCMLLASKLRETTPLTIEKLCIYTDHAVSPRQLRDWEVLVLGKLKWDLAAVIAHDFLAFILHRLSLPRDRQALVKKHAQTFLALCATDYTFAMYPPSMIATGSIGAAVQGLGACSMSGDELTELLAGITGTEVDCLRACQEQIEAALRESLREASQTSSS

Row | Structure (SMILES) | CDK2 % Inhibition at 0.03 μM (CDK2/cyclin A; 0.03 μM compound) [%] | CDK4 % Inhibition at 0.03 μM (human CDK4/cyclin D3; 0.03 μM compound) [%] | CDK2 % Inhibition at 0.03 μM (CDK2/cyclin A; at 0.03 μM) [%] | CDK4 % Inhibition at 0.03 μM (human CDK4/cyclin D3; at 0.03 μM) [%] | HCT-116 % Inhibition at 0.1 μM (HCT-116 cell line; HCT-116 cells, 0.1 μM compound) [%] | HCT-116 % Inhibition at 0.25 μM (HCT-116 cell line; [1]) [%] | HCT-116 % Inhibition at 0.25 μM (HCT-116 cell line; HCT-116, at 0.25 μM) [%] | other results
1 | C[C@@H]1CCC[C@H](C)N1CCNC(=O)c1ccc(Nc2nc(N)c(C(=O)c3c(F)cccc3F)s2)cc1 [Example A51] | – | – | – | – | – | – | – | pKi (CDK2/cyclin A): 6.96; pKi (human CDK4/cyclin D3): 8.15; pIC50 (HCT-116 cell line): 7.05
2 | COc1ccc(NC(=O)c2ccc(Nc3nc(N)c(C(=O)c4c(F)cccc4F)s3)cc2)cc1 [Example G54] | – | – | 8 | 9 | – | – | 86 | –
3 | COc1ccccc1CCNC(=O)c1ccc(Nc2nc(N)c(C(=O)c3c(F)cccc3F)s2)cc1 [Example G185] | – | – | 7 | 20 | – | – | 49 | HCT-116 % Inhibition at 0.1 μM (HCT-116 cell line; HCT-116, at 0.1 μM): 10%
4 | Nc1nc(Nc2ccc(C(=O)NC3CCN(Cc4ccccc4)C3)cc2)sc1C(=O)c1c(F)cccc1F (centres unmarked) [Example G381] | – | – | – | – | – | – | – | CDK2 % Inhibition at 0.03 μM (CDK2/cyclin A; 0.03 μM compound, 0.03 µM): 5%; CDK4 % Inhibition at 0.03 μM (human CDK4/cyclin D3; 0.03 μM compound, 0.03 µM): 38%; HCT-116 % Inhibition at 0.1 μM (HCT-116 cell line; HCT-116 cells, 0.1 μM compound, 0.1 µM): 43%; HCT-116 % Inhibition at 0.25 μM (HCT-116 cell line; HCT-116 cells, 0.25 μM compound, 0.25 µM): 88%
5 | CN(CCc1ccccc1)C(=O)c1ccc(Nc2nc(N)c(C(=O)c3c(F)cccc3F)s2)cc1 [Example G11] | – | – | −12 | 6 | – | – | 49 | –
6 | C[C@H](NC(=O)c1ccc(Nc2nc(N)c(C(=O)c3c(F)cccc3F)s2)cc1)C(N)=O [Example G191] | – | – | 14 | 15 | – | – | 51 | HCT-116 % Inhibition at 0.1 μM (HCT-116 cell line; HCT-116, at 0.1 μM): 3%
7 | Nc1nc(Nc2ccc(C(=O)N3CCC4(CC3)OCCO4)cc2)sc1C(=O)c1c(F)cccc1F [Example G34] | – | – | 8 | 9 | – | – | 53 | –
8 | CN1CCC[C@@H]1CNC(=O)c1ccc(Nc2nc(N)c(C(=O)c3c(F)cccc3F)s2)cc1 [Example A34, 4-[4-Amino-5-(2,6-difluoro-benzoyl)-thiazol-2-ylamino]-N-(1-methyl-pyrrolidin-2R-ylmethyl)-benzamide] | – | – | – | – | – | – | – | pKi (CDK2/cyclin A): 7.00; pKi (human CDK4/cyclin D3): 8.00; pIC50 (HCT-116 cell line): 6.85
9 | CC(=O)NCCNC(=O)c1ccc(Nc2nc(N)c(C(=O)c3c(F)cccc3F)s2)cc1 [Example G142] | – | – | 11 | 20 | – | – | 46 | HCT-116 % Inhibition at 0.1 μM (HCT-116 cell line; HCT-116, at 0.1 μM): 0%
10 | COc1cccc(CCNC(=O)c2ccc(Nc3nc(N)c(C(=O)c4c(F)cccc4F)s3)cc2)c1 [Example G193] | – | – | 19 | 26 | – | – | 56 | HCT-116 % Inhibition at 0.1 μM (HCT-116 cell line; HCT-116, at 0.1 μM): 17%
11 | Nc1nc(Nc2ccc(C(=O)NCCCN3CCCCC3)cc2)sc1C(=O)c1c(F)cccc1F [Example G128] | – | – | 15 | 41 | – | – | 78 | HCT-116 % Inhibition at 0.1 μM (HCT-116 cell line; HCT-116, at 0.1 μM): 23%
12 | Nc1nc(Nc2ccc(C(=O)NCCNc3ccccc3)cc2)sc1C(=O)c1c(F)cccc1F [Example G134] | – | – | 60 | 38 | – | – | 89 | HCT-116 % Inhibition at 0.1 μM (HCT-116 cell line; HCT-116, at 0.1 μM): 1%
13 | CC(C)(CNC(=O)c1ccc(Nc2nc(N)c(C(=O)c3c(F)cccc3F)s2)cc1)N1CCCCC1 [Example A52, 4-[4-Amino-5-(2,6-difluoro-benzoyl)-thiazol-2-ylamino]-N-(2-methyl-2-piperidin-1-yl-propyl)-benzamide] | – | – | – | – | – | – | – | pKi (CDK2/cyclin A): 6.77; pKi (human CDK4/cyclin D3): 8.05; pIC50 (HCT-116 cell line): 6.89
14 | CCCCCNC(=O)c1ccc(Nc2nc(N)c(C(=O)c3c(F)cccc3F)s2)cc1 [Example G200] | 15 | 23 | – | – | 19 | 50 | – | –
15 | C[C@H](NC(=O)c1ccc(Nc2nc(N)c(C(=O)c3c(F)cccc3F)s2)cc1)[C@@H]1CCCN1C [Example A69] | – | – | – | – | – | – | – | pKi (CDK2/cyclin A): 7.84; pKi (human CDK4/cyclin D3): 6.63; pIC50 (HCT-116 cell line): 5.68
16 | Nc1nc(Nc2ccc(C(=O)N3CCN(CCCO)CC3)cc2)sc1C(=O)c1c(F)cccc1F [Example G12] | – | – | −14 | 10 | – | – | 48 | –
17 | Nc1nc(Nc2ccc(C(=O)N3CCCC(CO)C3)cc2)sc1C(=O)c1c(F)cccc1F (centres unmarked) [Example G48] | – | – | 1 | 3 | – | – | 50 | –

Second part, led by results:

Row | CDK2 % Inhibition at 0.03 μM (CDK2/cyclin A; 0.03 μM compound) [%] | CDK4 % Inhibition at 0.03 μM (human CDK4/cyclin D3; 0.03 μM compound) [%] | CDK2 % Inhibition at 0.03 μM (CDK2/cyclin A; at 0.03 μM) [%] | CDK4 % Inhibition at 0.03 μM (human CDK4/cyclin D3; at 0.03 μM) [%] | Structure (SMILES) | HCT-116 % Inhibition at 0.1 μM (HCT-116 cell line; HCT-116 cells, 0.1 μM compound) [%] | HCT-116 % Inhibition at 0.25 μM (HCT-116 cell line; [1]) [%] | HCT-116 % Inhibition at 0.25 μM (HCT-116 cell line; HCT-116, at 0.25 μM) [%] | other results
18 | −31 | −15 | – | – | Nc1nc(Nc2ccc(C(=O)Nc3cccc(OC(F)(F)F)c3)cc2)sc1C(=O)c1c(F)cccc1F [Example G292] | 0 | 60 | – | –
19 | 29 | 13 | – | – | Nc1nc(Nc2ccc(C(=O)NCCc3ccc(F)cc3)cc2)sc1C(=O)c1c(F)cccc1F [Example G355] | 28 | 54 | – | –
20 | 31 | 27 | – | – | Cc1ccc(CNC(=O)c2ccc(Nc3nc(N)c(C(=O)c4c(F)cccc4F)s3)cc2)cc1C [Example G338] | 18 | 54 | – | –
21 | −21 | 6 | – | – | Nc1nc(Nc2ccc(C(=O)NCCc3c(Cl)cccc3Cl)cc2)sc1C(=O)c1c(F)cccc1F [Example G372] | 19 | 51 | – | –
22 | 36 | 36 | – | – | Nc1nc(Nc2ccc(C(=O)NCc3ccc(OC(F)(F)F)cc3)cc2)sc1C(=O)c1c(F)cccc1F [Example G208] | 11 | 56 | – | –
23 | 43 | 49 | – | – | Nc1nc(Nc2ccc(C(=O)NCCNc3ccc([N+](=O)[O-])cn3)cc2)sc1C(=O)c1c(F)cccc1F [Example G242] | 34 | 69 | – | –
24 | 1 | 12 | – | – | Nc1nc(Nc2ccc(C(=O)NCCc3cccnc3)cc2)sc1C(=O)c1c(F)cccc1F [Example G343] | 27 | 71 | – | –
25 | 16 | 28 | – | – | CCN(CC)C(=O)C1CCCN(C(=O)c2ccc(Nc3nc(N)c(C(=O)c4c(F)cccc4F)s3)cc2)C1 (centres unmarked) [Example G224] | 10 | 53 | – | –
26 | −2 | 8 | – | – | Nc1nc(Nc2ccc(C(=O)NCCCO)cc2)sc1C(=O)c1c(F)cccc1F [Example G334] | 6 | 41 | – | –
27 | −7 | −5 | – | – | Nc1nc(Nc2ccc(C(=O)N[C@H](CO)CC3CCCCC3)cc2)sc1C(=O)c1c(F)cccc1F [Example G359] | 25 | 69 | – | –
28 | 11 | 16 | – | – | CC[C@H](NC(=O)c1ccc(Nc2nc(N)c(C(=O)c3c(F)cccc3F)s2)cc1)c1ccccc1 [Example G214] | 15 | 52 | – | –
29 | 45 | 23 | – | – | Nc1ccccc1CNC(=O)c1ccc(Nc2nc(N)c(C(=O)c3c(F)cccc3F)s2)cc1 [Example G384] | 38 | 84 | – | –
